# Laboratory results published in patent publication US20210246122A1, “Triazine Compounds and Uses Thereof” (Aduro Biotech, Inc., priority 2018, published 2021).
# Biological target: T1, Human cGAS amino acids 155-522 (Homo sapiens, UniProt Q8N884)
# T1 construct: hexahistidine tag (N, cleaved yes); made in house; host or cells: E. coli BL21 DE3 Rosetta 2
# Experiment: cGAS activity assay (DNA-activated cGAS, remaining ATP measured by Kinase-Glo Max luciferase assay)
# Format: biochemical
# Conditions: 300 nM purified cGAS, 1 μM dsDNA, 250 μM ATP, 100 μM GTP, 37° C. for 1.25 hours
# Method: IC50 values were determined as follows:
# Human cGAS sequence encoding amino acids 155-522 was cloned into a pET (EMD Millipore) based expression plasmid. The resulting construct contained a tandem N-terminal hexahistidine tag, maltose binding protein fusion followed by a tobacco etch virus protease cleavable linker preceding cGAS amino acids 155-522.
# Construct sequence: Amino acids 155-522, Human cGAS
# Protein was expressed and purified from E. coli BL21 DE3 Rosetta 2 (EMD Millipore) cells using standard techniques. Cells were grown in 2× yeast extract tryptone medium and expression was initiated via the addition of isopropyl β-D-1-thiogalactopyranoside. Expression proceeded overnight at 18° C. Cells were harvested by centrifugation and subsequently lysed via sonication. Insoluble fraction was removed by centrifugation. Maltose binding protein (MBP) fusion proteins were purified on a dextrin sepharose column (GE Healthcare) and the MBP tag was removed using tobacco etch virus protease overnight during dialysis. Protein was further purified on a heparin column (GE Healthcare) and eluted using a NaCl gradient. Column fraction were pooled and further purified on a Superdex 75 gel filtration column (GE Healthcare). Protein was quantified using 280 nm absorbance. Protein was then flash frozen in liquid nitrogen and stored at −80° C. until use.
# Potential antagonists were diluted in 100% dimethyl sulfoxide and added to the reaction. Final dimethyl sulfoxide concentration was 5%. The compounds were tested from 1 μM with either 3- or 4-fold serial dilutions down to 0.000051 or 0.000004 μM respectively.
# Two complementary DNA oligos (IDT DNA) were annealed by slow cooling from 95° C. The resulting double stranded DNA was used to activate cGAS.
# Reactions were performed at 37° C. for 1.25 hours. Reaction buffer: 20 mM Tris HCl pH 9, 100 mM NaCl, 5 mM MgCl2, 0.1 mg/ml bovine gamma globulin, 250 μM adenosine triphosphate, 100 μM guanosine triphosphate, 0.5 mM Tris(2-carboxyethyl)phosphine hydrochloride, 1 μM double stranded DNA and 300 nM purified cGAS protein.
# Reactions were stopped and ATP levels in the reaction were measured using a luciferase based assay. Promega Kinase-Glo Max Assay. Luminescence was measured on a plate reader (Molecular Devices). Values were normalized to control wells lacking compound.
# T1 sequence (Q8N884 157-522): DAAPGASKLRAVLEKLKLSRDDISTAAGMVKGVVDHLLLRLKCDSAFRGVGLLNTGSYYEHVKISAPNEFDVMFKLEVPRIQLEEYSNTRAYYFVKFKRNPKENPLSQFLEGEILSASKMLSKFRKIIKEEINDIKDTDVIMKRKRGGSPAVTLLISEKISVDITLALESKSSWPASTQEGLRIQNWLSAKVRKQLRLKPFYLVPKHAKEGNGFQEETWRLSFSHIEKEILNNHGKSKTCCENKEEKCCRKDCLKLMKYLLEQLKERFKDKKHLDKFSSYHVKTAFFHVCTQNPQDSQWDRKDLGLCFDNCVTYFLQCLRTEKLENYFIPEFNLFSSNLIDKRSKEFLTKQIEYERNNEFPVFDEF
row,IC50 [µM],Compound
1,> 250,"COCCNc1nc(Nc2cccc(CN3CCN(C(=O)c4nccnc4O)CC3)c2)nc(N[C@@H](Cc2ccc(C#N)cc2)C(=O)OC)n1 [TA1033, methyl (S)-3-(4-cyanophenyl)-2-((4-((3-((4-(3-hydroxypyrazine-2-carbonyl)piperazin-1-yl)methyl)phenyl)amino)-6-((2-methoxyethyl)amino)-1,3,5-triazin-2-yl)amino)propanoate]"
2,> 250,"COCCNC(=O)[C@H](Cc1ccc(C#N)cc1)Nc1nc(NCc2nc3cc(F)ccc3[nH]2)nc(Nc2cccc(CN3CCNCC3)c2)n1 [TA1017, (S)-3-(4-cyanophenyl)-2-((4-(((5-fluoro-1H-benzo[d]imidazol-2-yl)methyl)amino)-6-((3-(piperazin-1-ylmethyl)phenyl)amino)-1,3,5-triazin-2-yl)amino)-N-(2-methoxyethyl)propanamide]"
3,> 250,"COCCNc1nc(Nc2cccc(CN3CCNCC3)c2)nc(N[C@@H](Cc2ccc(C#N)cc2)C(=O)OC)n1 [TA1031, methyl (S)-3-(4-cyanophenyl)-2-((4-((2-methoxyethyl)amino)-6-((3-(piperazin-1-ylmethyl)phenyl)amino)-1,3,5-triazin-2-yl)amino)propanoate]"
4,> 250,"COC(=O)[C@H](Cc1ccc(C#N)cc1)Nc1nc(Nc2cccc(CN3CCN(C(=O)c4nccnc4O)CC3)c2)nc(OC)n1 [TA1074, methyl (S)-3-(4-cyanophenyl)-2-((4-((3-((4-(3-hydroxypyrazine-2-carbonyl)piperazin-1-yl)methyl)phenyl)amino)-6-methoxy-1,3,5-triazin-2-yl)amino)propanoate]"
5,> 250,"CN(C)C(=O)[C@H](Cc1ccc(C#N)cc1)Nc1nc(NCc2nc3cc(F)ccc3[nH]2)nc(Nc2cccc(CN3CCNCC3)c2)n1 [TA1013, (S)-3-(4-cyanophenyl)-2-((4-(((5-fluoro-1H-benzo[d]imidazol-2-yl)methyl)amino)-6-((3-(piperazin-1-ylmethyl)phenyl)amino)-1,3,5-triazin-2-yl)amino)-N,N-dimethylpropanamide]"
6,> 250,"COC(=O)[C@H](Cc1ccc(C#N)cc1)Nc1nc(NCc2nc3cc(F)ccc3[nH]2)nc(Nc2cccc(CN3CCN(C(=O)OC(C)(C)C)CC3)c2)n1 [TA1003, tert-butyl (S)-4-(3-((4-((3-(4-cyanophenyl)-1-methoxy-1-oxopropan-2-yl)amino)-6-(((5-fluoro-1H-benzo[d]imidazol-2-yl)methyl)amino)-1,3,5-triazin-2-yl)amino)benzyl)piperazine-1-carboxylate]"
7,> 250,"COCCOCCNC(=O)[C@H](Cc1ccc(C#N)cc1)Nc1nc(NCc2nc3cc(F)ccc3[nH]2)nc(Nc2cccc(CN3CCN(C(=O)c4nccnc4OC)CC3)c2)n1 [TA1029, (S)-3-(4-cyanophenyl)-2-((4-(((5-fluoro-1H-benzo[d]imidazol-2-yl)methyl)amino)-6-((3-((4-(3-methoxypyrazine-2-carbonyl)piperazin-1-yl)methyl)phenyl)amino)-1,3,5-triazin-2-yl)amino)-N-(2-(2-methoxyethoxy)ethyl)propanamide]"
8,20 to 250,"COC(=O)[C@H](Cc1ccc(C#N)cc1)Nc1nc(NCc2nc3cc(Cl)ccc3[nH]2)nc(Nc2cccc(CN3CCN(C=O)CC3)c2)n1 [TA1062, methyl (S)-2-((4-(((5-chloro-1H-benzo[d]imidazol-2-yl)methyl)amino)-6-((3-((4-formylpiperazin-1-yl)methyl)phenyl)amino)-1,3,5-triazin-2-yl)amino)-3-(4-cyanophenyl)propanoate]"
9,> 250,"Cc1cc2nc(CN(C)c3nc(Nc4cccc(CN5CCNCC5)c4)nc(N[C@@H](Cc4ccc(C#N)cc4)C(=O)N(C)C)n3)[nH]c2cc1C [TA1014, (S)-3-(4-cyanophenyl)-2-((4-(((5,6-dimethyl-1H-benzo[d]imidazol-2-yl)methyl)(methyl)amino)-6-((3-(piperazin-1-ylmethyl)phenyl)amino)-1,3,5-triazin-2-yl)amino)-N,N-dimethylpropanamide]"
10,> 250,"CNC(=O)[C@H](Cc1ccc(C#N)cc1)Nc1nc(NCc2nc3cc(F)ccc3[nH]2)nc(Nc2cccc(CN3CCNCC3)c2)n1 [TA1022, (S)-3-(4-cyanophenyl)-2-((4-(((5-fluoro-1H-benzo[d]imidazol-2-yl)methyl)amino)-6-((3-(piperazin-1-ylmethyl)phenyl)amino)-1,3,5-triazin-2-yl)amino)-N-methylpropanamide]"
11,> 250,"COC(=O)[C@H](Cc1ccc(C#N)cc1)Nc1nc(NCc2nc3cc(F)ccc3[nH]2)nc(Nc2cccc(CN3CCN(C(=O)c4nccnc4OC)CC3)c2)n1 [TA1078, methyl (S)-3-(4-cyanophenyl)-2-((4-(((5-fluoro-1H-benzo[d]imidazol-2-yl)methyl)amino)-6-((3-((4-(3-methoxypyrazine-2-carbonyl)piperazin-1-yl)methyl)phenyl)amino)-1,3,5-triazin-2-yl)amino)propanoate]"
12,> 250,"CN(C)C(=O)[C@H](Cc1ccc(C#N)cc1)Nc1nc(Cl)nc(Nc2cccc(CN3CCN(C(=O)OC(C)(C)C)CC3)c2)n1 [TA1008, tert-butyl (S)-4-(3-((4-chloro-6-((3-(4-cyanophenyl)-1-(dimethylamino)-1-oxopropan-2-yl)amino)-1,3,5-triazin-2-yl)amino)benzyl)piperazine-1-carboxylate]"
13,> 250,"COC(=O)[C@H](Cc1ccc(C#N)cc1)Nc1ncnc(Nc2cccc(CN3CCN(C(=O)c4nccnc4O)CC3)c2)n1 [TA1026, methyl (S)-3-(4-cyanophenyl)-2-((4-((3-((4-(3-hydroxypyrazine-2-carbonyl)piperazin-1-yl)methyl)phenyl)amino)-1,3,5-triazin-2-yl)amino)propanoate]"
14,> 250,"COC(=O)[C@H](Cc1ccccc1)Nc1nc(NCc2nc3cc(F)ccc3[nH]2)nc(Nc2cccc(CN3CCNCC3)c2)n1 [TA1064, methyl (4-(((5-fluoro-1H-benzo[d]imidazol-2-yl)methyl)amino)-6-((3-(piperazin-1-ylmethyl)phenyl)amino)-1,3,5-triazin-2-yl)phenylalaninate]"
15,> 250,"CNC(=O)[C@H](Cc1ccc(C#N)cc1)Nc1nc(NCc2nc3cc(F)ccc3[nH]2)nc(Nc2cccc(CN3CCN(C=O)CC3)c2)n1 [TA1030, (S)-3-(4-cyanophenyl)-2-((4-(((5-fluoro-1H-benzo[d]imidazol-2-yl)methyl)amino)-6-((3-((4-formylpiperazin-1-yl)methyl)phenyl)amino)-1,3,5-triazin-2-yl)amino)-N-methylpropanamide]"
16,> 250,"COC(=O)[C@H](Cc1ccc(C#N)cc1)Nc1nc(NCc2nnn[nH]2)nc(Nc2cccc(CN3CCNCC3)c2)n1 [TA1068, methyl (S)-2-((4-(((1H-tetrazol-5-yl)methyl)amino)-6-((3-(piperazin-1-ylmethyl)phenyl)amino)-1,3,5-triazin-2-yl)amino)-3-(4-cyanophenyl)propanoate]"
17,< 20,"COC(=O)[C@H](CC1CCCCC1)Nc1nc(NCc2nc3cc(F)ccc3[nH]2)nc(Nc2cccc(CN3CCN(C(=O)c4nccnc4O)CC3)c2)n1 [TA1072, methyl (S)-3-cyclohexyl-2-((4-(((5-fluoro-1H-benzo[d]imidazol-2-yl)methyl)amino)-6-((3-((4-(3-hydroxypyrazine-2-carbonyl)piperazin-1-yl)methyl)phenyl)amino)-1,3,5-triazin-2-yl)amino)propanoate]"
18,> 250,"Cc1cc2nc(CN(C)c3nc(Nc4cccc(CN5CCN(S(=O)(=O)c6cnn(C)c6C)CC5)c4)nc(N[C@@H](Cc4ccc(C#N)cc4)C(=O)N(C)C)n3)[nH]c2cc1C [TA1073, (S)-3-(4-cyanophenyl)-2-((4-(((5,6-dimethyl-1H-benzo[d]imidazol-2-yl)methyl)(methyl)amino)-6-((3-((4-((1,5-dimethyl-1H-pyrazol-4-yl)sulfonyl)piperazin-1-yl)methyl)phenyl)amino)-1,3,5-triazin-2-yl)amino)-N,N-dimethylpropanamide]"
19,20 to 250,"COC(=O)[C@H](Cc1ccc(C#N)cc1)Nc1nc(NCc2nc3cc(Cl)ccc3[nH]2)nc(Nc2cccc(CN3CCNCC3)c2)n1 [TA1058, methyl (S)-2-((4-(((5-chloro-1H-benzo[d]imidazol-2-yl)methyl)amino)-6-((3-(piperazin-1-ylmethyl)phenyl)amino)-1,3,5-triazin-2-yl)amino)-3-(4-cyanophenyl)propanoate]"
20,> 250,"CN(C)C(=O)[C@H](Cc1ccc(C#N)cc1)Nc1ncnc(Nc2cccc(CN3CCN(C(=O)OC(C)(C)C)CC3)c2)n1 [TA1010, tert-butyl (S)-4-(3-((4-((3-(4-cyanophenyl)-1-(dimethylamino)-1-oxopropan-2-yl)amino)-1,3,5-triazin-2-yl)amino)benzyl)piperazine-1-carboxylate]"
